± gives the expanded uncertainty stated by the source.
Experiment: excess molar enthalpy (molar enthalpy of mixing); xn = mol fraction of the nth substance listed
Settings: 298.15 K, 101 kPa, Liquid, Calvet calorimetry

CCCCCCCC[n+]1ccn(C)c1.F[B-](F)(F)F [1-methyl-3-octylimidazolium tetrafluoroborate] + CCO
Settings | excess molar enthalpy [kJ/mol]
x1 = 0.135 | 1.6 ± 0.038
x1 = 0.137 | 1.62 ± 0.037
x1 = 0.14 | 1.64 ± 0.037
x1 = 0.143 | 1.66 ± 0.038
x1 = 0.146 | 1.68 ± 0.038
x1 = 0.149 | 1.7 ± 0.039
x1 = 0.152 | 1.72 ± 0.039
x1 = 0.155 | 1.74 ± 0.039
x1 = 0.159 | 1.76 ± 0.04
x1 = 0.162 | 1.78 ± 0.04
x1 = 0.166 | 1.8 ± 0.04
x1 = 0.17 | 1.83 ± 0.041
x1 = 0.174 | 1.85 ± 0.041
x1 = 0.178 | 1.87 ± 0.041
x1 = 0.183 | 1.9 ± 0.042
x1 = 0.188 | 1.92 ± 0.042
x1 = 0.193 | 1.95 ± 0.043
x1 = 0.198 | 1.98 ± 0.043
x1 = 0.204 | 2 ± 0.044
x1 = 0.209 | 2.03 ± 0.045
x1 = 0.216 | 2.06 ± 0.045
x1 = 0.222 | 2.1 ± 0.046
x1 = 0.23 | 2.13 ± 0.047
x1 = 0.237 | 2.17 ± 0.048
x1 = 0.242 | 2.2 ± 0.049
x1 = 0.247 | 2.23 ± 0.049
x1 = 0.253 | 2.27 ± 0.05
x1 = 0.259 | 2.3 ± 0.05
x1 = 0.264 | 2.33 ± 0.051
x1 = 0.271 | 2.36 ± 0.051
x1 = 0.277 | 2.39 ± 0.052
x1 = 0.284 | 2.42 ± 0.052
x1 = 0.291 | 2.45 ± 0.053
x1 = 0.299 | 2.48 ± 0.053
x1 = 0.307 | 2.5 ± 0.054
x1 = 0.315 | 2.52 ± 0.054
x1 = 0.324 | 2.54 ± 0.054
x1 = 0.334 | 2.56 ± 0.055
x1 = 0.344 | 2.57 ± 0.055
x1 = 0.354 | 2.58 ± 0.055
x1 = 0.365 | 2.59 ± 0.055
x1 = 0.377 | 2.6 ± 0.055
x1 = 0.39 | 2.6 ± 0.055
x1 = 0.404 | 2.6 ± 0.055
x1 = 0.419 | 2.6 ± 0.055
x1 = 0.435 | 2.59 ± 0.055
x1 = 0.452 | 2.57 ± 0.055
x1 = 0.47 | 2.54 ± 0.054
x1 = 0.49 | 2.52 ± 0.054
x1 = 0.499 | 2.5 ± 0.053
x1 = 0.507 | 2.48 ± 0.053
x1 = 0.517 | 2.46 ± 0.053
x1 = 0.526 | 2.44 ± 0.052
x1 = 0.536 | 2.41 ± 0.052
x1 = 0.546 | 2.38 ± 0.051
x1 = 0.556 | 2.36 ± 0.051
x1 = 0.567 | 2.32 ± 0.05
x1 = 0.579 | 2.29 ± 0.049
x1 = 0.591 | 2.25 ± 0.048
x1 = 0.603 | 2.2 ± 0.048
x1 = 0.616 | 2.15 ± 0.047
x1 = 0.629 | 2.1 ± 0.046
x1 = 0.643 | 2.05 ± 0.044
x1 = 0.658 | 1.99 ± 0.043
x1 = 0.673 | 1.92 ± 0.042
x1 = 0.689 | 1.85 ± 0.04
x1 = 0.706 | 1.77 ± 0.039
x1 = 0.724 | 1.68 ± 0.037
x1 = 0.743 | 1.58 ± 0.035
x1 = 0.762 | 1.48 ± 0.033
x1 = 0.783 | 1.37 ± 0.031
x1 = 0.805 | 1.24 ± 0.029
x1 = 0.828 | 1.11 ± 0.027
x1 = 0.852 | 0.963 ± 0.024
x1 = 0.878 | 0.806 ± 0.021
x1 = 0.906 | 0.629 ± 0.019
x1 = 0.935 | 0.442 ± 0.016
x1 = 0.966 | 0.233 ± 0.014
